Reference: patent publication US9499495B2, “Quinazolines and azaquinazolines as dual inhibitors of RAS/RAF/MEK/ERK and PI3K/AKT/PTEN/mTOR pathways” (Asana Biosciences, LLC, priority 2013, dated 2016)

Assays:
mTOR kinase = target: T1, mTOR kinase (Homo sapiens, UniProt P42345); assay: mTOR kinase TR-FRET assay; format: biochemical
T1 construct: purchased Millipore, US
In short: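 TR-FRET with ULight-p70 S6K (Thr 389) peptide (50 nM) and 20 μM ATP in 50 mM HEPES pH 7.5, 1 mM EGTA, 3 mM MnCl2; compound pre-incubated with enzyme before substrate addition, reaction at rt, EDTA-stopped. Eu anti-phospho antibody read 665/615 nm; IC50 from sigmoidal dose-response fit.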

pERK in A375 cells = assay: In Cell Western (ICW) assay, pERK in A375 cells; format: cell-based; details: Homo sapiens, A-375, 3 h treatment
In short: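 RKO or A375 cells were exposed to compounds for 3 h at 37 °C, then fixed and stained in-cell with antibodies to pERK1/2 (T202/Y204), pS6RP or pAKT T308, followed by a Eu-labelled secondary. Time-resolved fluorescence (340/615 nm) was normalized to Hoechst, and IC50 values were fitted sigmoidally against DMSO as 0% inhibition.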

B-RAFV600E = target: T2, B-RAFV600E (Homo sapiens, UniProt P15056, V600E); assay: B-RAFV600E radiometric assay; format: biochemical; details: read-out: Kinase assay B-Raf
T2 construct: purchased Millipore, USA 14-557
T2 sequence (P15056 416-766 V600E limits assumed): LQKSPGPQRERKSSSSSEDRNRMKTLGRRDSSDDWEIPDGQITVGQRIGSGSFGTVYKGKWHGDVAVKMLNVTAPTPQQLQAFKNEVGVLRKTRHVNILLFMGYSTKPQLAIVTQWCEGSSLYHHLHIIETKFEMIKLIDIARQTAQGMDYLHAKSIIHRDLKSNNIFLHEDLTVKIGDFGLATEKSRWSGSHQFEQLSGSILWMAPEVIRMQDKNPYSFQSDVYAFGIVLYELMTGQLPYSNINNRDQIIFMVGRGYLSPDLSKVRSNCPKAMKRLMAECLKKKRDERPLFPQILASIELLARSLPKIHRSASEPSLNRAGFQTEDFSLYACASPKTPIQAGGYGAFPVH
In short: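 B-RAFV600E was preincubated 45 min at rt with compound in 1% DMSO. MEK-K97M (0.5 μg), 5 μM final cold ATP and [γ-32P]ATP were then added for 2 h at rt. Phosphorylated MEK was captured on P81 paper and scintillation-counted; IC50 came from a sigmoidal dose-response fit.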

T1 sequence (P42345 1362-2549 limits assumed): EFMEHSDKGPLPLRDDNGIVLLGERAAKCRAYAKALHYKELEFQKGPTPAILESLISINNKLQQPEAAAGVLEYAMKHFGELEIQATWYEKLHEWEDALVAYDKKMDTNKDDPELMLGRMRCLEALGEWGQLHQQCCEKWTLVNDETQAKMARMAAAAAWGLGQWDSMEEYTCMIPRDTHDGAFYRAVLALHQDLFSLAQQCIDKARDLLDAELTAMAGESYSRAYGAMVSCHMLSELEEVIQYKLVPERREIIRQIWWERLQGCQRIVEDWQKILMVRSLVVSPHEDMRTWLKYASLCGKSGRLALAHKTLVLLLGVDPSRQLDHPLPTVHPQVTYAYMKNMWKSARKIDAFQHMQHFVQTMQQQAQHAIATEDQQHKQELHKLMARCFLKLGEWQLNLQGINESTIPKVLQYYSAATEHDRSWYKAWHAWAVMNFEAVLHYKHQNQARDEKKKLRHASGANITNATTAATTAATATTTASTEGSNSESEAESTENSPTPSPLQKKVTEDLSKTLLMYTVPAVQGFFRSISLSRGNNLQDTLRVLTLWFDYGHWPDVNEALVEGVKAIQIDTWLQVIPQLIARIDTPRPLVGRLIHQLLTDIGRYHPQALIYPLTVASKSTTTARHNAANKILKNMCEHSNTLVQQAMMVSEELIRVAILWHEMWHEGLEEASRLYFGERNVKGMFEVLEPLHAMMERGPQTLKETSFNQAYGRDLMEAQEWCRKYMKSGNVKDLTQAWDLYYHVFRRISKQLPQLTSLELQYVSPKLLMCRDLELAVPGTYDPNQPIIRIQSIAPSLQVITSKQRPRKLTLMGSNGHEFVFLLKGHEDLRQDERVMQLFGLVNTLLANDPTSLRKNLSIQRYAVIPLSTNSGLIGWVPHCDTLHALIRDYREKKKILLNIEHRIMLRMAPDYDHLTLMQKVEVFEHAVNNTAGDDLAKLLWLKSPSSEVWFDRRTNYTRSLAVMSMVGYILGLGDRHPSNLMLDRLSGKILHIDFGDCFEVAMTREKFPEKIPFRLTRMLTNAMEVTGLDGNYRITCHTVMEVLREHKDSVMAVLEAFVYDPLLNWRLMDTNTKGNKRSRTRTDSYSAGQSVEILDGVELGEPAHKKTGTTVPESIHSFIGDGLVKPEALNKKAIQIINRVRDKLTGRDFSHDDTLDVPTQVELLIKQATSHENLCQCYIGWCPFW

Compound | IC50 (mTOR kinase) [µM] | IC50 (pERK in A375 cells) [µM] | IC50 (B-RAFV600E) [µM]
COc1cc2nc(-c3cnc(N)nc3)nc(N3CCOCC3)c2cc1-c1cccc(NS(=O)(=O)CCCF)c1F [Example 11, N-(3-(2-(2-aminopyrimidin-5-yl)-7-methoxy-4-morpholinoquinazolin-6-yl)-2-fluorophenyl)-3-fluoropropane-1-sulfonamide] | 0.001 to 0.1 | 0.001 to 0.1 | 0.001 to 0.1
Nc1ncc(-c2nc(N3CCOCC3)c3cc(-c4cccc(NS(=O)(=O)CCCF)c4F)cc(N4CCOCC4)c3n2)cn1 [Example 69, N-(3-(2-(2-aminopyrimidin-5-yl)-4,8-dimorpholinoquinazolin-6-yl)-2-fluorophenyl)-3-fluoropropane-1-sulfonamide] | 0.001 to 0.1 | 0.001 to 0.1 | 0.001 to 0.1
Nc1ncc(-c2nc(N3CCOCC3)c3nc(-c4cccc(NS(=O)(=O)CCCF)c4F)ccc3n2)cn1 [Example 87, N-(3-(2-(2-aminopyrimidin-5-yl)-4-morpholinopyrido[3,2-d]pyrimidin-6-yl)-2-fluorophenyl)-3-fluoropropane-1-sulfonamide] | 0.001 to 0.1 | 0.1 to 1 | 0.001 to 0.1
Nc1ccc(-c2nc(N3CCOCC3)c3nc(-c4cccc(NS(=O)(=O)CCCF)c4F)ccc3n2)cn1 [Example 88, N-(3-(2-(6-aminopyridin-3-yl)-4-morpholinopyrido[3,2-d]pyrimidin-6-yl)-2-fluorophenyl)-3-fluoropropane-1-sulfonamide] | 0.001 to 0.1 | 0.1 to 1 | 0.001 to 0.1
Cc1cc(-c2nc(N3CCOCC3)c3nc(-c4cccc(NS(=O)(=O)CCCF)c4F)ccc3n2)cnc1N [Example 90, N-(3-(2-(6-amino-5-methylpyridin-3-yl)-4-morpholinopyrido[3,2-d]pyrimidin-6-yl)-2-fluorophenyl)-3-fluoropropane-1-sulfonamide] | 0.1 to 1 | 0.1 to 1 | 0.001 to 0.1

More lines, now with the values ahead:

IC50 (mTOR kinase) [µM] | IC50 (pERK in A375 cells) [µM] | IC50 (B-RAFV600E) [µM] | Compound
0.1 to 1 | 0.1 to 1 | 0.1 to 1 | CCCS(=O)(=O)Nc1cccc(-c2ccc3nc(-c4cnc(N)nc4)nc(N4CCOCC4)c3n2)c1F [Example 7, N-(3-(2-(2-aminopyrimidin-5-yl)-4-morpholinopyrido[3,2-d]pyrimidin-6-yl)-2-fluorophenyl)propane-1-sulfonamide]
0.001 to 0.1 | 0.001 to 0.1 | 0.001 to 0.1 | CNC(=O)Nc1ccc(-c2nc(N3CCOCC3)c3cc(-c4cccc(NS(=O)(=O)CCCF)c4F)cc(OC)c3n2)cn1 [Example 39, 3-fluoro-N-(2-fluoro-3-(8-methoxy-2-(6-(3-methylureido)pyridin-3-yl)-4-morpholinoquinazolin-6-yl)phenyl)propane-1-sulfonamide]
0.001 to 0.1 | 0.001 to 0.1 | 0.001 to 0.1 | COc1cc(-c2cccc(NS(=O)(=O)CCCF)c2F)cc2c(N3CCOC[C@H]3C)nc(-c3cnc(N)nc3)nc12 [Example 43, (R)-N-(3-(2-(2-aminopyrimidin-5-yl)-8-methoxy-4-(3-methylmorpholino)quinazolin-6-yl)-2-fluorophenyl)-3-fluoropropane-1-sulfonamide]
0.001 to 0.1 | 0.001 to 0.1 | 0.001 to 0.1 | COc1cc(-c2c(F)ccc(NS(=O)(=O)CCCF)c2F)cc2c(N3CCOCC3)nc(-c3ccc(N)nc3)nc12 [Example 79, N-(3-(2-(6-aminopyridin-3-yl)-8-methoxy-4-morpholinoquinazolin-6-yl)-2,4-difluorophenyl)-3-fluoropropane-1-sulfonamide]
0.001 to 0.1 | 0.1 to 1 | 0.1 to 1 | CCCS(=O)(=O)Nc1cccc(-c2ccc3nc(-c4ccc(N)nc4)nc(N4CCOCC4)c3n2)c1F [Example 86, N-(3-(2-(6-aminopyridin-3-yl)-4-morpholinopyrido[3,2-d]pyrimidin-6-yl)-2-fluorophenyl)propane-1-sulfonamide]
0.1 to 1 | 0.001 to 0.1 | 0.001 to 0.1 | Nc1ccc(-c2nc(N3CCOCC3)c3nc(-c4cccc(NS(=O)(=O)c5cc(F)ccc5F)c4F)ccc3n2)cn1 [Example 92, N-(3-(2-(6-aminopyridin-3-yl)-4-morpholinopyrido[3,2-d]pyrimidin-6-yl)-2-fluorophenyl)-2,5-difluorobenzenesulfonamide]
